Assay results from patent publication US20220117938A1, “COMBINATON THERAPY WITH A DON PRODRUG AND AN IMMUNE CHECKPOINT INHIBITOR” (DRACEN PHARMACEUTICALS, INC., priority 2019, published 2022).

How the values were obtained:
MC-38 tumors = assay: MC-38 re-implantation study in tumor free mice (Example 3); assay type: in vivo, Mus musculus; conditions: for Tumor volume (Mean ± SEM): four tumor free mice of Group 5 (0.7 mpk 5-days ON 2-days OFF x 4 cycles)
Description: Four mice in Group 5 were tumor free on D67 and 1×10^6 MC-38 cells suspended in 100 μL base DMEM were inoculated subcutaneously into the left flank. 5 naïve mice were inoculated with the same inoculation condition as control. The tumor sizes were measured three times per week during the treatment. The study was terminated on D102.
Four mice in Group 5 were tumor free on D67 and 1×10^6 MC-38 cells suspended in 100 μL base DMEM were inoculated subcutaneously into the left flank. 5 naïve mice were inoculated with the same inoculation condition as control.

H22 tumors = assay: Anti-tumor efficacy of Compound 1 with and without anti-PD-L1 in the H22 subcutaneous syngeneic model (Example 6); assay type: in vivo, mice
Description: Female BALB/c mice were inoculated subcutaneously at right flank with H22 tumor cells for tumor development. Treatment began on Day 6 post tumor inoculation and the mice were treated for 21 days. Tumor and weight measurements were continued for the duration of the study, and the survival was recorded until Day 106. The results are summarized Table 6-1, Table 6-2, and FIG. 23. In all cases the dosing volume was 10 ml/kg. PD-L1 antibody was obtained from Bioxcell.

LK-2 tumors = assay: Anti-tumor efficacy of Compound 1 in the LK-2 xenograft model (Example 13); assay type: in vivo, mice
Description: Female BALB/c nude mice were inoculated subcutaneously in the right flank with LK-2 cells for tumor development. Four days after tumor inoculation, mice with tumor sizes reaching approximately 171 mm^3 (range from 112 mm^3 to 222 mm^3) were selected and assigned into groups using stratified randomization with 8 mice per group based upon their tumor volumes. The treatments were started from the day of randomization (defined as D0), Group 1 was treated with Vehicle control, 10 ml/kg, IP, bid×19; Group 2 was treated with Compound 1, 1.4 mg/kg, SC, 5d ON, 2d OFF×2 cycles, followed Compound 1, 2.8 mg/kg, SC, 5d ON, 2 d OFF×1 cycle; Group 3 was treated with Compound 1, 7 mg/kg, IV, tiw (Mon, Wed, Fri)×3 cycles; and Group 4 was treated with Compound 1, 3.3 mg/kg, IV, tiw (Mon, Wed, Fri)×3 cycles. The tumor sizes were measured two times per week during the treatment. The entire study was terminated on D18 after start of the treatment. All treatments were well-tolerated without any adverse effects or significant body weight loss.

[1] = 4 cured mice of Group 5 (0.7 mpk) re-implanted with MC-38 cells
[2] = 0.7 mg/kg 5-day ON 2-day OFF x 3 cycles
[3] = 1.4 mg/kg 5-day ON 2-day OFF x 3 cycles
[4] = Day 26, 0.7 mg/kg 5-day ON 2-day OFF x 3 cycles
[5] = Day 26, 1.4 mg/kg 5-day ON 2-day OFF x 3 cycles
[6] = Group 2, 1.4 mg/kg SC 5 d ON 2 d OFF x2 cycles, then 2.8 mg/kg x1 cycle
[7] = Group 3, 7 mg/kg IV tiw x3 cycles
[8] = Group 4, 3.3 mg/kg IV tiw x3 cycles

Q: For `CC(=O)N[C@@H](Cc1c[nH]c2ccccc12)C(=O)N[C@@H](CCC(=O)C=[N+]=[N-])C(=O)OC(C)C` [Compound 1, Isopropyl (S)-2-((S)-2-acetamido-3-(1H-indol-3-yl)propanamido)-6-diazo-5-oxohexanoate], which “Re-implanted cured mice still tumor free on Day 35 after re-implantation” value (MC-38 tumors; [1]) is on record?
A: one

Q: And the “Re-implanted cured mice that regrew the tumor” value (MC-38 tumors; [1])?
A: three

Q: What about the “Tumor volume (Mean ± SEM)” value (MC-38 tumors; Day 7 after re-implantation) of the same molecule?
A: 32 ± 14 mm^3

Q: And the “Tumor volume (Mean ± SEM)” value (MC-38 tumors; Day 9 after re-implantation)?
A: 106 ± 44 mm^3

Q: And the “Tumor volume (Mean ± SEM)” value (MC-38 tumors; Day 11 after re-implantation)?
A: 152 ± 55 mm^3

Q: And the “Tumor volume (Mean ± SEM)” value (MC-38 tumors; Day 14 after re-implantation)?
A: 373 ± 174 mm^3

Q: And the “Tumor volume (Mean ± SEM)” value (MC-38 tumors; Day 16 after re-implantation)?
A: 568 ± 258 mm^3

Q: And the “Tumor volume (Mean ± SEM)” value (MC-38 tumors; Day 18 after re-implantation)?
A: 886 ± 429 mm^3

Q: And the “Tumor volume (Mean ± SEM)” value (MC-38 tumors; Day 21 after re-implantation)?
A: 1911 ± 794 mm^3

Q: And the “Cure Rate” value (H22 tumors; [2])?
A: 0%

Q: What about the MST (H22 tumors; [2]) of the same molecule?
A: 45 days

Q: And the “Cure Rate” value (H22 tumors; [3])?
A: 0%

Q: And the MST (H22 tumors; [3])?
A: 47 days

Q: What about the TGI (H22 tumors; Compound 1 alone 0.7 mg/kg, p<0.001) of the same molecule?
A: ~80%

Q: What about the TGI (H22 tumors; Compound 1 alone 1.4 mg/kg, p<0.001) of the same molecule?
A: ~80%

Q: And the BWC (H22 tumors; [4])?
A: 0%

Q: What about the “Mean Tumor Vol” value (H22 tumors; [4]) of the same molecule?
A: 529 ± 64 mm^3

Q: And the TGI (H22 tumors; [4])?
A: 79%

Q: And the BWC (H22 tumors; [5])?
A: 7%

Q: What about the “Mean Tumor Vol” value (H22 tumors; [5]) of the same molecule?
A: 465 ± 133 mm^3

Q: What about the TGI (H22 tumors; [5]) of the same molecule?
A: 82%

Q: And the “RTV at day 11” value (LK-2 tumors; [6])?
A: 8.13 ± 1.31

Q: And the T/C (LK-2 tumors; [6])?
A: 84.34%

Q: And the TGI (LK-2 tumors; [6])?
A: 19.84%

Q: And the “Tumor Size at day 14” value (LK-2 tumors; [6])?
A: 1359 ± 207 mm^3

Q: And the Tumor volume (LK-2 tumors; Group 2, 1.4 mg/kg SC 5 d ON 2 d OFF x2 cycles, then 2.8 mg/kg x1 cycle, day 0)?
A: 171 ± 10 mm^3

Q: And the Tumor volume (LK-2 tumors; Group 2, 1.4 mg/kg SC 5 d ON 2 d OFF x2 cycles, then 2.8 mg/kg x1 cycle, day 2)?
A: 207 ± 19 mm^3

Q: And the Tumor volume (LK-2 tumors; Group 2, 1.4 mg/kg SC 5 d ON 2 d OFF x2 cycles, then 2.8 mg/kg x1 cycle, day 4)?
A: 217 ± 24 mm^3

Q: And the Tumor volume (LK-2 tumors; Group 2, 1.4 mg/kg SC 5 d ON 2 d OFF x2 cycles, then 2.8 mg/kg x1 cycle, day 7)?
A: 419 ± 81 mm^3

Q: What about the Tumor volume (LK-2 tumors; Group 2, 1.4 mg/kg SC 5 d ON 2 d OFF x2 cycles, then 2.8 mg/kg x1 cycle, day 10) of the same molecule?
A: 780 ± 128 mm^3

Q: What about the Tumor volume (LK-2 tumors; Group 2, 1.4 mg/kg SC 5 d ON 2 d OFF x2 cycles, then 2.8 mg/kg x1 cycle, day 14) of the same molecule?
A: 1359 ± 207 mm^3

Q: What about the “RTV at day 11” value (LK-2 tumors; [7]) of the same molecule?
A: 6.29 ± 0.75

Q: What about the T/C (LK-2 tumors; [7]) of the same molecule?
A: 65.30%

Q: What about the TGI (LK-2 tumors; [7]) of the same molecule?
A: 40.73%

Q: What about the “Tumor Size at day 14” value (LK-2 tumors; [7]) of the same molecule?
A: 1050 ± 113 mm^3

Q: And the Tumor volume (LK-2 tumors; Group 3, 7 mg/kg IV tiw x3 cycles, day 0)?
A: 171 ± 11 mm^3

Q: And the Tumor volume (LK-2 tumors; Group 3, 7 mg/kg IV tiw x3 cycles, day 2)?
A: 196 ± 9 mm^3

Q: What about the Tumor volume (LK-2 tumors; Group 3, 7 mg/kg IV tiw x3 cycles, day 4) of the same molecule?
A: 213 ± 8 mm^3

Q: What about the Tumor volume (LK-2 tumors; Group 3, 7 mg/kg IV tiw x3 cycles, day 7) of the same molecule?
A: 256 ± 13 mm^3

Q: And the Tumor volume (LK-2 tumors; Group 3, 7 mg/kg IV tiw x3 cycles, day 10)?
A: 483 ± 44 mm^3

Q: What about the Tumor volume (LK-2 tumors; Group 3, 7 mg/kg IV tiw x3 cycles, day 14) of the same molecule?
A: 1050 ± 113 mm^3

Q: And the Tumor volume (LK-2 tumors; Group 3, 7 mg/kg IV tiw x3 cycles, day 17)?
A: 1565 ± 175 mm^3

Q: And the “RTV at day 11” value (LK-2 tumors; [8])?
A: 7.66 ± 0.88

Q: And the T/C (LK-2 tumors; [8])?
A: 79.51%

Q: What about the TGI (LK-2 tumors; [8]) of the same molecule?
A: 24.13%

Q: And the “Tumor Size at day 14” value (LK-2 tumors; [8])?
A: 1294 ± 172 mm^3

Q: What about the Tumor volume (LK-2 tumors; Group 4, 3.3 mg/kg IV tiw x3 cycles, day 0) of the same molecule?
A: 170 ± 10 mm^3

Q: And the Tumor volume (LK-2 tumors; Group 4, 3.3 mg/kg IV tiw x3 cycles, day 2)?
A: 193 ± 6 mm^3

Q: And the Tumor volume (LK-2 tumors; Group 4, 3.3 mg/kg IV tiw x3 cycles, day 4)?
A: 211 ± 6 mm^3

Q: What about the Tumor volume (LK-2 tumors; Group 4, 3.3 mg/kg IV tiw x3 cycles, day 7) of the same molecule?
A: 374 ± 47 mm^3

Q: And the Tumor volume (LK-2 tumors; Group 4, 3.3 mg/kg IV tiw x3 cycles, day 10)?
A: 577 ± 68 mm^3

Q: And the Tumor volume (LK-2 tumors; Group 4, 3.3 mg/kg IV tiw x3 cycles, day 14)?
A: 1294 ± 172 mm^3
